Reference: ChEMBL document CHEMBL3526034 (Drug Metab Dispos, 2013)

Columns and labels:
[1] = molecular target: UDP-glucuronosyltransferase 1A6 (Homo sapiens, UniProt P19224); experiment: Drug metabolism assessed as UDPGA-fortified human recombinant UGT1A6-mediated DTG glucuronide metabolite ((2S,3S,4S,5R,6S)-6-((4R,12aS)-9-(2,4-difluorobenzylcarbamoyl)-4-methyl-6,8-dioxo-3,4,6,8,12,12a-hexahydro-2H-[1,3]oxazino[3,2-d]pyrido[1,2-a]pyrazin-7-yloxy)-3,4,5-trihydroxytetrahydro-2H-pyran-2-carboxylic acid) formation at 16 uM after 120 mins by radio-HPLC analysis; type: ADME; conditions: recombinant enzyme
Chain of UDP-glucuronosyltransferase 1A6 (P19224 whole entry): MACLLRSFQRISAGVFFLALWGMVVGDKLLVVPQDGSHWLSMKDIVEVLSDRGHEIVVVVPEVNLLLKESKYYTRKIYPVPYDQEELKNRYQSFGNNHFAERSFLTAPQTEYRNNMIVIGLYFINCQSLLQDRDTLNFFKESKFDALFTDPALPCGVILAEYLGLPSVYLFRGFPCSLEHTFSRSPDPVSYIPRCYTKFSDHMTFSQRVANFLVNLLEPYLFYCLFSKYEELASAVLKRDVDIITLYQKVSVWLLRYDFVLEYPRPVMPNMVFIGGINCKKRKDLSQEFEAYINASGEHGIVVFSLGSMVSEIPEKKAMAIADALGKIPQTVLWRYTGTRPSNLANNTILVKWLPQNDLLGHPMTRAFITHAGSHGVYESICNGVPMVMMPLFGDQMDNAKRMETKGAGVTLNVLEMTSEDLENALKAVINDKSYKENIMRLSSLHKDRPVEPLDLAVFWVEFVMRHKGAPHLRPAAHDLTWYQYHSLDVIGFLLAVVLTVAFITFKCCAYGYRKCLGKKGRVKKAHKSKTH

Cytochrome P450 2C8 = molecular target: T1, Cytochrome P450 2C8 (Homo sapiens, UniProt P10632); experiment: Metabolism-dependent inhibition of CYP2C8 in human liver microsomes using rosiglitazone as substrate preincubated for 20 mins with NADPH prior to initiation of reaction with probe substrate by HPLC analysis; type: ADME
T1 sequence (P10632 whole entry): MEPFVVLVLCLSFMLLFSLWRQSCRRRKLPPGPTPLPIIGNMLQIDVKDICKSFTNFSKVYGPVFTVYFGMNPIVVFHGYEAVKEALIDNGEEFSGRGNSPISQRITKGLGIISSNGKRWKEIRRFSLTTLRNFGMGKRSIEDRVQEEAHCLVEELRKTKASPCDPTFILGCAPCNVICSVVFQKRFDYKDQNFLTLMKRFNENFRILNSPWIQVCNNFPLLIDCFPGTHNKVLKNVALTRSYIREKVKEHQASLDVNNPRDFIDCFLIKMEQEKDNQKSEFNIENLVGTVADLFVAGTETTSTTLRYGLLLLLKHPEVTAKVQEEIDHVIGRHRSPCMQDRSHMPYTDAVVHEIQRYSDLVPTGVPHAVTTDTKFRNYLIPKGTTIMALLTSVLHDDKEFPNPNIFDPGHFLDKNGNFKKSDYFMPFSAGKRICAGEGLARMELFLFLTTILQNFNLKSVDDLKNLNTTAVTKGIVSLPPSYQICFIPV

Liver microsome = experiment: Drug metabolism in NADPH-fortified human liver microsomes assessed as metabolite M3 ((4R,12aS)-N-((3,5-difluorophenyl)(hydroxy)methyl)-7-hydroxy-4-methyl-6,8-dioxo-3,4,6,8,12,12a-hexahydro-2H-[1,3]oxazino[3,2-d]pyrido[1,2-a]pyrazine-9-carboxamide) formation at 5 uM after 120 mins by radio-HPLC analysis; type: ADME
Cytochrome P450 2A6 = Cytochrome P450 2A6 (Homo sapiens, UniProt P11509); experiment: Metabolism-dependent inhibition of CYP2A6 in human liver microsomes using coumarin as substrate preincubated for 20 mins with NADPH prior to initiation of reaction with probe substrate by HPLC analysis; type: ADME
[2] = Drug excretion in human feces at 20 mg, po; type: ADME, tissue-based; conditions: faeces, read-out: Drug excretion
[3] = molecular target: T2, Broad substrate specificity ATP-binding cassette transporter ABCG2 (Homo sapiens, UniProt Q9UNQ0); experiment: Inhibition of BCRP (unknown origin) expressed in MDCK2 cells assessed as basolateral to apical transport of [14C]cimetidine after 90 mins by liquid scintillation counting analysis; type: ADME, cell-based, MDCK-II
T2 sequence (Q9UNQ0 whole entry): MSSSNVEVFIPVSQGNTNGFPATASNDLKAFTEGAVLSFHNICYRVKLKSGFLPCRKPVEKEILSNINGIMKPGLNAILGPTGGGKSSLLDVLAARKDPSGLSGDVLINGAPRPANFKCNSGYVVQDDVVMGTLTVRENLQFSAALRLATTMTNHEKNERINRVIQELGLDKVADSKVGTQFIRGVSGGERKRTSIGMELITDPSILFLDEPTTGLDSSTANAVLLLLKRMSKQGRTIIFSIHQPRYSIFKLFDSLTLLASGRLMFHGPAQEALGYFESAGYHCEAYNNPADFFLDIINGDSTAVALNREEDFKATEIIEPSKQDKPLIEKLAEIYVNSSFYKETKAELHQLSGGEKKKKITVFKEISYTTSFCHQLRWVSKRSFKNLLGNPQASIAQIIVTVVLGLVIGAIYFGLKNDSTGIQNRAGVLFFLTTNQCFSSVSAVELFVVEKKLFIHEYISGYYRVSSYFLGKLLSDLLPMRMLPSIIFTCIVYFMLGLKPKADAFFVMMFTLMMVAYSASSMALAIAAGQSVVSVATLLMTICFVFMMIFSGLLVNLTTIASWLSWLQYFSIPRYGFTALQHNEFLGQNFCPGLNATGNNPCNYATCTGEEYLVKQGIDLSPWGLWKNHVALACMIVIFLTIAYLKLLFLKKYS

Cytochrome P450 2C19 [4] = molecular target: T3, Cytochrome P450 2C19 (Homo sapiens, UniProt P33261); experiment: Inhibition of CYP2C19 in human liver microsomes using S-mephenytoin as substrate preincubated for 20 mins with substrate prior to initiation of reaction with NADPH by HPLC analysis; type: ADME
T3 sequence (P33261 whole entry): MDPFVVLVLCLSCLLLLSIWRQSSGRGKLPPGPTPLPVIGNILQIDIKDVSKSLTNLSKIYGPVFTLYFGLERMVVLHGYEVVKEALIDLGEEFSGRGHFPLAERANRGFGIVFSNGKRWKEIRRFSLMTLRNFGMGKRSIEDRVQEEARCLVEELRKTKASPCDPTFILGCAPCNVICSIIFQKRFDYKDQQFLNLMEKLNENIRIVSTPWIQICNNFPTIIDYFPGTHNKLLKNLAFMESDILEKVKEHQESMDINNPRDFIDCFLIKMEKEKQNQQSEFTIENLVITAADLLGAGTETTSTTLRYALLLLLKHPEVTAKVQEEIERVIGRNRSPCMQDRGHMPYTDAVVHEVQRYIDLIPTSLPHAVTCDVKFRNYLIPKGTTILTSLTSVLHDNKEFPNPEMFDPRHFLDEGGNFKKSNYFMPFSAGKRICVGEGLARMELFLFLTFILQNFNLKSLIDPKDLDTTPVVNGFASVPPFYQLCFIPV

Cytochrome P450 2C9 = Cytochrome P450 2C9 (Homo sapiens, UniProt P11712); experiment: Metabolism-dependent inhibition of CYP2C9 in human liver microsomes using diclofenac as substrate preincubated for 20 mins with NADPH prior to initiation of reaction with probe substrate by HPLC analysis; type: ADME
Chain of Cytochrome P450 2C9 (P11712 whole entry): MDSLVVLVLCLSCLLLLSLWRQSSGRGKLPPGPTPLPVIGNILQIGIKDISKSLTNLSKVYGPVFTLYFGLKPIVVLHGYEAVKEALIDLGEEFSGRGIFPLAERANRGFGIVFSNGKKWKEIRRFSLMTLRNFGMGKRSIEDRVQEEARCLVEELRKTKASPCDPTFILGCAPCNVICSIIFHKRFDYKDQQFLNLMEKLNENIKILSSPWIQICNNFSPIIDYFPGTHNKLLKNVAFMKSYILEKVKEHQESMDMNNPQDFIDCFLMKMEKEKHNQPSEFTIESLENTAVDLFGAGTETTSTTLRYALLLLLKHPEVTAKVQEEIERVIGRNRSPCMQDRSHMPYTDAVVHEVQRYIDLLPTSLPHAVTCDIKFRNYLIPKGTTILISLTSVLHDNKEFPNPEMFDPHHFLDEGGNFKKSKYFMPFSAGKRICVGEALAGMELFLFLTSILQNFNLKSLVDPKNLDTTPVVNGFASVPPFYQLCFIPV

[5] = molecular target: Solute carrier family 22 member 2 (Homo sapiens, UniProt O15244); experiment: Inhibition of human OCT2 expressed in MDCK2 cells using [14C]metformin as substrate by liquid scintillation counting analysis; type: ADME, cell-based, MDCK-II
Chain of Solute carrier family 22 member 2 (O15244 whole entry): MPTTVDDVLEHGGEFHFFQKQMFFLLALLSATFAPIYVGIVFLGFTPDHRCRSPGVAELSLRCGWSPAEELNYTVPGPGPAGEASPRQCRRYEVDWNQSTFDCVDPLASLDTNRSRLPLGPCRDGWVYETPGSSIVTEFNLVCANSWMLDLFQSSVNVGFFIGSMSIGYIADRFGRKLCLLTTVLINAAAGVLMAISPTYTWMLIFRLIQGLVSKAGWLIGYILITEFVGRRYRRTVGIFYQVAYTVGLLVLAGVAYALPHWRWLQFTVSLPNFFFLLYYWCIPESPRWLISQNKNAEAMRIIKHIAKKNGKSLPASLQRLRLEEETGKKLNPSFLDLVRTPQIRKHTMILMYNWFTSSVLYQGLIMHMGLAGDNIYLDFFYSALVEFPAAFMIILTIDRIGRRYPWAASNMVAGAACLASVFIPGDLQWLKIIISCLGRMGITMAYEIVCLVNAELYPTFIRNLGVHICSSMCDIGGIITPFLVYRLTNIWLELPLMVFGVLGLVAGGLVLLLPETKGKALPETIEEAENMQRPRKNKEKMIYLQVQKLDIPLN

[6] = molecular target: ATP-dependent translocase ABCB1 (Homo sapiens, UniProt P08183); experiment: Inhibition of MDR1 (unknown origin) expressed in MDCK2 cells assessed as basolateral to apical transport of [3H]digoxin at 100 uM after 90 mins by liquid scintillation counting analysis; type: ADME, cell-based; conditions: mdck-ii, 1.5 h
Chain of ATP-dependent translocase ABCB1 (P08183 whole entry): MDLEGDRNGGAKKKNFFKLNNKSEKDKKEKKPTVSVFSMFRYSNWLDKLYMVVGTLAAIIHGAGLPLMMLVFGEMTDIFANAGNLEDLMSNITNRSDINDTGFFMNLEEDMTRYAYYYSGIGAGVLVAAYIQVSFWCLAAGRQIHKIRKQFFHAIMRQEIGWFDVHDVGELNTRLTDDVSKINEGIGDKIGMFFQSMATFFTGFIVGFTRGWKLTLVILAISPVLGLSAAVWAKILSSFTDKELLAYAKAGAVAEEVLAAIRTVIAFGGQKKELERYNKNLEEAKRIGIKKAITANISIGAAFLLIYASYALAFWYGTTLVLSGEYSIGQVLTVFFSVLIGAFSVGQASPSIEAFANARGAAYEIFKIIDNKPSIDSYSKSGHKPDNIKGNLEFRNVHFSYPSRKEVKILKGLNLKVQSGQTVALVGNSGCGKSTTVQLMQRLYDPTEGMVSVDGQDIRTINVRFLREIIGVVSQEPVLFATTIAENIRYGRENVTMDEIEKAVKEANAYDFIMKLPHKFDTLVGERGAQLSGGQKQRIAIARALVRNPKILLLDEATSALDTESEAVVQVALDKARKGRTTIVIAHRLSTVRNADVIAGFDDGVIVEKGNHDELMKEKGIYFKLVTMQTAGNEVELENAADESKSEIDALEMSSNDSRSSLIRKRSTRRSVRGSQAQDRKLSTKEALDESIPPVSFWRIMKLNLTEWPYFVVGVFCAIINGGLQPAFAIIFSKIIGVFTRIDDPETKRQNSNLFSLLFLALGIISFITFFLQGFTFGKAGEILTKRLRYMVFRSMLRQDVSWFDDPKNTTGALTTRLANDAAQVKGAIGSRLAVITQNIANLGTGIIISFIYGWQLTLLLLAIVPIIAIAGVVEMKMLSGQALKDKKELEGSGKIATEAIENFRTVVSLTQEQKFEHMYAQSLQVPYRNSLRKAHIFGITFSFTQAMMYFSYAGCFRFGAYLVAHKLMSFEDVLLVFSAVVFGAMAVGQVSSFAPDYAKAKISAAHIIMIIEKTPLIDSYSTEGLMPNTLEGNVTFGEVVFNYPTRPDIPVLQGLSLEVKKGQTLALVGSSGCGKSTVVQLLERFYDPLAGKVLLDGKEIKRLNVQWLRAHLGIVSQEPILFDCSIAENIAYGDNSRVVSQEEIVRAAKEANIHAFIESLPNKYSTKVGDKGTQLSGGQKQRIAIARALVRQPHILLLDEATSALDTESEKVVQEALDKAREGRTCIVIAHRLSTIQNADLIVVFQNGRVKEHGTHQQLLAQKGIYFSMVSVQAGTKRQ

Cytochrome P450 2C19 [7] = molecular target: T3, Cytochrome P450 2C19; experiment: Drug metabolism in supersomes expressing human recombinant CYP2C19 assessed as NADPH-fortified enzyme-mediated metabolite formation at 5 uM after 120 mins by radio HPLC analysis; type: ADME; conditions: 2 h
MDR1 (P-gp, ABCB1) = MDR1 (P-gp, ABCB1) (Homo sapiens, UniProt P08183); experiment: Activity at human MDR1 expressed in MDCK2 cells assessed as apical to basolateral mass balance at 3 uM by liquid scintillation counting analysis; type: ADME, cell-based, MDCK-II; conditions: MDCK-MDR1, read-out: Activity
Chain of MDR1 (P-gp, ABCB1) (P08183 whole entry): as above

UGT1A1 = UGT1A1 (Homo sapiens, UniProt P22309); experiment: Inhibition of human recombinant UGT1A1 expressed in supersomes assessed as scopoletin glucuronidation at 100 uM by fluorescence analysis; type: ADME; conditions: probe scopoletin
[8] = molecular target: T2, Broad substrate specificity ATP-binding cassette transporter ABCG2; experiment: Inhibition of BCRP (unknown origin) expressed in MDCK2 cells assessed as basolateral to apical transport of [14C]cimetidine at 30 uM after 90 mins by liquid scintillation counting analysis; type: ADME, cell-based; conditions: mdck-ii, 1.5 h

For `C[C@@H]1CCO[C@H]2Cn3cc(C(=O)NCc4ccc(F)cc4F)c(=O)c(O)c3C(=O)N12` [DOLUTEGRAVIR], the Drug metabolism [1] was “metabolite_not_detected”, the IC50 (Cytochrome P450 2C8) was over 100 µM and the Drug metabolism (Liver microsome) was “metabolite_detected”. For the same compound, the IC50 (Cytochrome P450 2A6) was over 100 µM, the dose excreted [2] was 3.1% and the IC50 [3] was over 30 µM. For the same compound, the IC50 (Cytochrome P450 2C19 [4]) was over 100 µM, the IC50 (Cytochrome P450 2C9) was over 100 µM and the IC50 [5] was 1.9 µM. For the same compound, the “inhibition (INH)” value [6] was 29%, the Drug metabolism (Cytochrome P450 2C19 [7]) was “metabolite_not_detected” and the recovery at 3 µM (MDR1 (P-gp, ABCB1)) was 84%. The inhibition at 100 µM (UGT1A1) was 33% and the “inhibition (INH)” value [8] was 43%.
